Values quoted from earlier work in US20070178099A1, “Suppression of TNFalpha and IL-12 in therapy” (The Kennedy Institute of Rheumatology, priority 1996, published 2007).
Like-named read-outs stand apart in the source and are kept apart here.

Experiments:
[1] = tested on: rheumatoid arthritis
[2] = tested on: Crohn's disease; conditions: open-label trial

cA2: chimeric anti-TNF antibody: variable region of mouse anti-human TNF IgG1 antibody A2 and constant regions of human IgG1, kappa immunoglobulin
clinical effect in rheumatoid arthritis ([1]; open-label trials): suppression of inflammation and with successful retreatment after relapse | clinical effect in rheumatoid arthritis ([1]; randomized, double-blind, placebo-controlled trial): suppression of inflammation | clinical effect in Crohn's disease [2]: Beneficial effects
